Laboratory results taken from patent US10023541B2, “Urea compounds and their use as enzyme inhibitors” (BIAL-PORTELA & CA, S.A., priority 2012, dated 2018).
Read-outs that look alike come from different tables or passages of the source.

Experiments:
FAAH [1] = biological target: T1, FAAH (Rattus norvegicus, UniProt P97612); test: Determination of IC50 in rat brain membrane FAAH enzymatic assay (3H-AEA); type: biochemical; settings: rat brain membranes, 2 μM AEA, 15 min preincubation
T1 construct: Frozen brains from 4 Wistar rats were homogenized; from tissue; host or cells: Wistar rat brain membranes
T1 sequence (P97612 1-579): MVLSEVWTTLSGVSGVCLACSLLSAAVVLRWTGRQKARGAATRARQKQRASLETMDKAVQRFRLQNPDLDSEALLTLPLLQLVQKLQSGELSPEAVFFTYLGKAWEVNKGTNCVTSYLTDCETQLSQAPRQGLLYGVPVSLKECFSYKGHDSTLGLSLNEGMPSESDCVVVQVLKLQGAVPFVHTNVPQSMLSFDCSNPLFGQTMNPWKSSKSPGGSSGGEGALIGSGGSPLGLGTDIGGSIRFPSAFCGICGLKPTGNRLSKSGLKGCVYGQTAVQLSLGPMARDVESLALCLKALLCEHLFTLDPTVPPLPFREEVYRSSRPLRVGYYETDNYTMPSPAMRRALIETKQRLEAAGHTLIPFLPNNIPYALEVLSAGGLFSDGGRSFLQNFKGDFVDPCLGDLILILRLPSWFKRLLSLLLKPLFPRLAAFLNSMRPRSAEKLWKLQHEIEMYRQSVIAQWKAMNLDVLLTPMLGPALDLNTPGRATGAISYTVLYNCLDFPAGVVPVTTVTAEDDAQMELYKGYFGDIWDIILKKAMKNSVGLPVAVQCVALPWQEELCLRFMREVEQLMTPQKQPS
Protocol: Anandamide[ethanolamine-1-^3H-] was obtained from American Radiochemicals—with a specific activity of 60 Ci/mmol. All other reagents were obtained from Sigma-Aldrich. Optiphase Supermix was obtained from Perkin Elmer and activated charcoal was obtained from Sigma.
Frozen brains from 4 Wistar rats were homogenized in 20 ml 1 mM MgCl2, 20 mM HEPES (4-(2-hydroxyethyl)-1-piperazineethanesulfonic acid) pH 7.0 with Potter-Elvejhem (8 strokes at 500 rpm). Homogenates were centrifuged for 20 min at 36000 g at 4° C. (Beckman, 70Ti rotor). Pellets were resuspended in 15 ml of the same buffer and centrifuged under the same conditions. Pellets were resuspended in 15 ml of the same buffer and incubated for 15 min at 37° C. after which they were centrifuged for 20 min at 36000 g at 4° C. Each pellet was then resuspended in 10 ml 3 mM MgCl2, 1 mM EDTA (Ethylenediaminetetraacetic acid), 50 mM Tris (2-Amino-2-hydroxymethyl-propane-1,3-diol) pH 7.4 and protein determined with the BioRad Protein Assay (BioRad) using a standard curve of BSA (Bovine Serum Albumin) (50-250 μg/ml).
Reaction mix (total volume of 200 μl) contained: 2 μM AEA (2 μM AEA+5 nM ^3H-AEA), 0.1% fatty acid free BSA, 5 or 10 μg protein, in 1 mM EDTA, 10 mM Tris pH 7.6 and compound 1 at various concentrations. […] Counts per minute (CPM) or disintegrations per minute (DPM) were determined in a MicrobetaTriLux scintillation counter. […]

[2] = CYPs metabolic stability assay in HLM; type: in vitro ADME, human; settings: 1 h, 5 μM; for Metabolic Stability (% of Remaining) Human CYP+: with NADPH; for Metabolic Stability (% of Remaining) Human CYP−: without NADPH
Protocol: (§1) Stability of the test compounds was performed in MLM (mouse liver microsomes) or HLM (human liver microsomes) in the presence and in the absence of NADPH.
(§2) The stability was measured using the incubation mixture (100 μl total volume) contained 1 mg/ml total protein, MgCl2 5 mM and 50 mM K-phosphate buffer. Samples were incubated in the presence and in the absence of NADPH 1 mM. Reactions were pre-incubated 5 min and the reaction initiated with the compound under test (5 μM for HLM and 50 μM for MLM). Samples were incubated for 60 min in a shaking water bath at 37° C. The reaction was stopped by adding 100 μl of acetonitrile. Samples were then centrifuged, filtered and supernatant injected in HLPC-MSD. Test compounds were dissolved in DMSO and the final concentration of DMSO in the reaction was below 0.5% (v/v). At TO acetonitrile was added before adding the compound. All experiments were performed with samples in duplicate.
(§3) The stability data are given as % of remaining compound after 1 h exposure to MLM or HLM. 100% means no metabolic reaction at all and 0% corresponds to full enzymatic degradation. “CYP−” refers to the absence of cofactor (NADPH) which is essential for CYP metabolic reactions. Therefore “CYP−” can be regarded as control value. “CYP+” refers to the presence of cofactor and the enzymatic degradation may take place according to the stability of the test compound.

FAAH [3] = biological target: T2, FAAH (Mus musculus, UniProt O08914); test: In vivo protocol: FAAH activity in tissue homogenates after oral dosing of mice; settings: for Peripheral Selectivity: FAAH activity in liver divided by FAAH activity in brain, lower = more peripherally selective; for activity at 3 mg/kg / activity at 0.1 mg/kg / activity at 1 mg/kg / activity at 10 mg/kg: mouse
T2 construct: A fragment of liver, left lung lobe and brain without cerebellum were removed; from tissue; host or cells: mouse brain, liver and lung homogenates
T2 sequence (O08914 1-579): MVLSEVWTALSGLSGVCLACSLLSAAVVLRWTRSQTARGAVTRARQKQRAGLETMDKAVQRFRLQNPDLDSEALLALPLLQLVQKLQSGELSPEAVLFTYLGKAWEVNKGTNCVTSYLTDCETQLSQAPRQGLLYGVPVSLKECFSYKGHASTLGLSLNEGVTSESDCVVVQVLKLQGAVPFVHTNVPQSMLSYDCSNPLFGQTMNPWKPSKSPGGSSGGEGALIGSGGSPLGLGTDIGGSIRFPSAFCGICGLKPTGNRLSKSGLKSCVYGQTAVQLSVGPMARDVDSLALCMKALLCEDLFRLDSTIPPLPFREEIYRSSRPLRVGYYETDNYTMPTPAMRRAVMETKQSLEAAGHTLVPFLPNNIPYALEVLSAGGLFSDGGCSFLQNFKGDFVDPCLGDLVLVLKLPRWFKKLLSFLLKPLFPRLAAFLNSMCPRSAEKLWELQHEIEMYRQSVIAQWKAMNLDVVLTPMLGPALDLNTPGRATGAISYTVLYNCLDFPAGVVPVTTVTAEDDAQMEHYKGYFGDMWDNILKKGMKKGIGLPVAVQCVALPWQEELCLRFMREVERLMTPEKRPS
Protocol: In vivo testing was performed according to the protocol described below. BRh (brain homogenate) indicates inhibition in central nervous tissue, in this case, brain, and LVh (liver homogenate) indicates inhibition in peripheral tissue, in this case, liver. The controls were the reaction mix minus the test compounds. Therefore, a low value for the test compound indicates a strong inhibitor.
The animals used for experiments were male NMRI mice (weighing 27-44 g) obtained from Interfauna Ibérica (Spain). Mice were kept 5 per cage, under controlled environmental conditions (12 hr light/dark cycle and room temperature 221° C.). Food and tap water were allowed ad libitum and the experiments were all carried out during daylight hours.
[…] compounds via oral route (8 ml/kg; compound suspended in 0.5% carboxymethylcellulose (CMC) or solubilized in water) or vehicle (controls) using animal feeding stainless steel curve needles (Perfectum, U.S.A.). Fifteen minutes before sacrifice animal were anesthetized with pentobarbital 60 mg/kg administered intraperitoneally. A fragment of liver, left lung lobe and brain without cerebellum were removed and put in plastic vials containing membrane buffer (3 mM MgCl2, 1 mM EDTA, 50 mM Tris HCl pH 7.4). Tissues were stored at −30° C. until analysis.
Animals were always fasted overnight before administration of compounds except for time points of >18 h, where food was removed on the morning of day of administration and the compound was administered in the afternoon of the same day. Animals were then given water but nothing else.
Tissues were thawed on ice and were homogenized in 10 volumes of membrane buffer (3 mM MgCl2, 1 mM EDTA, 50 mM Tris HCl pH 7.4) with either Potter-Elvejhem (brains—8 strokes at 500 rpm) or Heidolph Diax (livers—2 strokes at position 5 for 20 sec with 30 sec pauses).
Total protein in tissues was determined with the BioRad Protein Assay (BioRad) using a standard curve of BSA (50-250 μg/ml).
Reaction mix (total volume of 200 μl) contained: 2 μM AEA (2 μM AEA+5 nM ^3H-AEA), 0.1% fatty acid free BSA, 15 μg (brain), 5 μg (liver) or 50 μg (lung) protein, in 1 mM EDTA, 10 mM Tris pH 7.6. After a 15 min pre-incubation period at 37° C. reaction was started by the addition of the substrate solution (cold AEA+radiolabelled AEA+BSA). Reaction was carried out for 10 min (brain and lung) or 7 min (liver) before termination by the addition of 400 μl activated charcoal suspension (8 g charcoal in 32 ml 0.5 M HCl in continuous agitation). After a 30 min incubation period at room temperature with agitation, charcoal was sedimented by centrifugation in microfuge (10 min at 13000 rpm). 200 μl of the supernatant were added to 800 μl Optiphase Supermix scintillation cocktail previously distributed in 24-well plates. Counts per minute (cpm) were determined in a MicrobetaTriLux scintillation counter.
In each assay blanks (without protein) were prepared.
The percentage of remaining enzymatic activity was calculated with respect to controls and after blank subtraction.

FAAH [4] = biological target: T2, FAAH; test: ED50 determination of FAAH inhibition in liver after p.o. administration; type: in vivo; settings: po, read-out: Liver ED50 (95CI)
Source text: Confidence intervals (95%) are included.

[5] = CYPs metabolic stability assay in MLM; type: in vitro ADME, mouse; settings: 1 h, 50 μM; for Metabolic Stability (% of Remaining) Mouse CYP+: with NADPH; for Metabolic Stability (% of Remaining) Mouse CYP−: without NADPH
Protocol: as §1, §2, §3

[6] = 1 h, 3 mg/kg, read-out: FAAH Activity (%) mouse Liver
[7] = 8 h, 0.1 mg/kg, read-out: FAAH Activity (%) mouse Liver
[8] = 8 h, read-out: FAAH Activity (%) mouse Liver
[9] = 8 h, 3 mg/kg, read-out: FAAH Activity (%) mouse Liver
[10] = po, brain homogenate, 3 mg/kg po, 8 h, % remaining activity vs control, read-out: FAAH Activity (%) Br. h. 3 mg/kg. 8 h. po
[11] = po, liver homogenate, 3 mg/kg po, 8 h, % remaining activity vs control, read-out: FAAH Activity (%) Lv. h. 3 mg/kg. 8 h. po

Row | Peripheral Selectivity (FAAH [3]; 3 mg/kg po, 8 h) | activity at 3 mg/kg (FAAH [3]; [10]) | activity at 3 mg/kg (FAAH [3]; [11]) | ED50 (FAAH [4]; Time 8 h) | SMILES | IC50 (FAAH [1]) | Metabolic Stability (% of Remaining) Human CYP+ [2] | Metabolic Stability (% of Remaining) Human CYP− [2] | factor by which most peripherally selective compound (FAAH [3]; compared with comparator compounds, 3 mg/kg po, 8 h) | fold more potent than comparator compound 2 (FAAH [3]; mouse liver, 0.1 mg/kg, 8 h post-dose) | activity at 3 mg/kg (FAAH [3]; [6]) | activity at 0.1 mg/kg (FAAH [3]; [7]) | activity at 1 mg/kg (FAAH [3]; [8]) | activity at 3 mg/kg (FAAH [3]; [9]) | activity at 10 mg/kg (FAAH [3]; [8]) | ED50 (FAAH [4]) | Metabolic Stability (% of Remaining) Mouse CYP+ [5] | Metabolic Stability (% of Remaining) Mouse CYP− [5]
1 | 0.017 | 121% | 2.1% | 0.17 mg/kg | CN(C(=O)n1cnc(-c2ccc(F)c(O)c2)c1)C1CCCC1 [Comparator Compound 2, N-cyclopentyl-4-(4-fluoro-3-hydroxyphenyl)-N-methyl-1H-imidazole-1-carboxamide] | – | 70% | 92% | – | – | 17% | 73.8% | 4.9% | 2.1% | 1.2% | – | 53% | 92%
2 | 0.235 | 86.2% | 20.3% | – | CN(C(=O)n1cnc(-c2cccc(NC(=N)N)c2)c1)C1CCCCC1 [Comparator Compound 1, N-cyclohexyl-4-(3-guanidinophenyl)-N-methyl-1H-imidazole-1-carboxamide] | – | – | – | – | – | – | – | – | – | – | – | – | –

Row | SMILES | Peripheral Selectivity (FAAH [3]; 3 mg/kg po, 8 h) | activity at 3 mg/kg (FAAH [3]; [10]) | activity at 3 mg/kg (FAAH [3]; [11]) | ED50 (FAAH [4]; Time 8 h) | IC50 (FAAH [1]) | Metabolic Stability (% of Remaining) Human CYP+ [2] | Metabolic Stability (% of Remaining) Human CYP− [2] | factor by which most peripherally selective compound (FAAH [3]; compared with comparator compounds, 3 mg/kg po, 8 h) | fold more potent than comparator compound 2 (FAAH [3]; mouse liver, 0.1 mg/kg, 8 h post-dose) | activity at 3 mg/kg (FAAH [3]; [6]) | activity at 0.1 mg/kg (FAAH [3]; [7]) | activity at 1 mg/kg (FAAH [3]; [8]) | activity at 3 mg/kg (FAAH [3]; [9]) | activity at 10 mg/kg (FAAH [3]; [8]) | ED50 (FAAH [4]) | Metabolic Stability (% of Remaining) Mouse CYP+ [5] | Metabolic Stability (% of Remaining) Mouse CYP− [5]
3 | CN(C(=O)n1cnc(-c2cccc(NC(N)=O)c2)c1)C1CCCC1 [Compound 1, N-Cyclopentyl-N-methyl-4-(3-ureidophenyl)-1H-imidazole-1-carboxamide] | 0.008 | 85.1% | 0.7% | – | 27 nM | 82% | 99% | > 2 | more than 10 fold | 1.9% | 6.4% | 1.6% | 0.7% | 0.4% | 0.03 mg/kg | 96% | 95%
